Measurements: patent US5109003A, “Method for the treatment of peptic ulcer disease” (Hoechst Japan Limited, priority 1989, dated 1992)
Like-named read-outs stand apart in the source and are kept apart here.

How the values were obtained:
[1] = test system: ethanol-induced gastric ulcer; assay: Protective effect on ethanol-induced gastric ulcer in rats; type: in vivo, rat (male Sprague-Dawley); details: 10 mg/kg p.o.; for Ulcer index: mean ± S.E.; for inhibition in vivo at 10 mg/kg: Rattus norvegicus, po, 1 h
Procedure: 1.2. Protective Effect on Ethanol-induced Gastric Ulcer in Rats
Male Sprague-Dawley rats weighing 300-400 g were used in groups of 4-36. After fasting overnight, the animals were given orally the compounds. Thirty minutes later they received absolute ethanol (1 ml/body) orally and were sacrificed after 60 minutes. The stomach was removed and examined for erosions. The ulcer index was obtained in the same way as under 1.1.

[2] = test system: stress-induced gastric ulcer; assay: Protective effect on gastric ulcer induced by restraint plus water-immersion stress in rats; type: in vivo, rat (male Sprague-Dawley); details: for Ulcer index / inhibition in vivo at 10 mg/kg: 10 mg/kg p.o.; for Ulcer index: mean ± S.E.; for inhibition in vivo at 10 mg/kg: Rattus norvegicus, po
Procedure: 1.1. Protective Effect of Gastric Ulcer Induced by Restraint Plus Water-immersion Stress in Rats
Male Sprague-Dawley rats weighing 250-300 g were used in groups of 5-35. The animals were given the compounds by the oral route after fasting overnight. Immediately, under light ether anesthesia they were placed in a restraint box and immersed in water at 23° C. for 6 or 7 hours. Then the animals were sacrificed, and their stomachs were isolated, inflated with 8 ml of 1% formalin for 10 minutes, opened along the greater curvature, and examined for the presence of gastric erosions. The longest axis of each erosion induced on the glandular section of the stomach was measured, and the sum of the lengths was defined as an ulcer index.

[3] = in vivo; details: mouse, mice
Description: The intravenous or intraperitoneal LD50 values of the compounds of this invention and the reference compound (propentofylline) for mice are shown in Table 4.

[4] = test system: peptic ulcer; details: Ter. Arkh. 57, 52-55, 1985; JP Laid-Open 225317/88; cited from earlier work
[5] = in vivo; details: mouse, mice, oral, read-out: oral LC50
[6] = control distilled water (93.1 ± 8.9 mm)
[7] = control distilled water (26.0 ± 2.2 mm)
[8] = iv, i.v., read-out: LD50 (intravenous)
[9] = control 10% EtOH (32.9 ± 3.3 mm)
[10] = control 10% EtOH (78.9 ± 8.5 mm)
[11] = ip, i.p., read-out: LD50 (intraperitoneal)

Structure (SMILES): C=CCCn1c(=O)c2c(ncn2CCCCC(C)(C)O)n(CC)c1=O [Compound 21, 1-(3-Butenyl)-3-ethyl-7-(5-hydroxy-5-methylhexyl)-3-xanthine]
- Ulcer index [1, 6]: 19.2 ± 9.2 mm
- inhibition in vivo at 10 mg/kg ([1]; vs. control distilled water): 79.4%

Structure (SMILES): CCCn1c(=O)c2c(ncn2CCCCC(C)(C)O)n(C)c1=O [Compound 8]
- Ulcer index [2, 7]: 12.1 ± 2.9 mm
- inhibition in vivo at 10 mg/kg ([2]; vs. control distilled water): 53.5%
- LD50 [3, 8]: 100 to 200 mg/kg

Structure (SMILES): CCCn1cnc2c1c(=O)n(CCCCC(C)(C)O)c(=O)n2CC [Compound 1]
- Ulcer index [2, 7]: 8.7 ± 1.6 mm
- inhibition in vivo at 10 mg/kg ([2]; vs. control distilled water): 66.5%
- Ulcer index [1, 6]: 12.0 ± 6.9 mm
- inhibition in vivo at 10 mg/kg ([1]; vs. control distilled water): 87.1%
- LD50 [3, 8]: 100 to 200 mg/kg

Structure (SMILES): CCn1cnc2c1c(=O)n(CCCCC(C)(C)O)c(=O)n2CC [Compound 16, 3,7-Diethyl-1-(5-hydroxy-5-methylhexyl)-xanthine]
- Ulcer index [2, 7]: 6.8 ± 1.6 mm
- inhibition in vivo at 10 mg/kg ([2]; vs. control distilled water): 73.8%
- Ulcer index [1, 6]: 17.0 ± 7.1 mm
- inhibition in vivo at 10 mg/kg ([1]; vs. control distilled water): 81.7%
- LD50 [3, 8]: > 200 mg/kg

Structure (SMILES): CCn1c(=O)n(CCCCCC(C)(C)O)c(=O)c2c1ncn2C(C)C [Compound 15, 3-Ethyl-1-(6-hydroxy-6-methylheptyl)-7-isopropylxanthine]
- Ulcer index [2, 9]: 6.6 ± 1.6 mm
- inhibition in vivo at 10 mg/kg ([2]; vs. control 10% EtOH): 79.9%
- Ulcer index [1, 10]: 4.2 ± 2.2 mm
- inhibition in vivo at 10 mg/kg ([1]; listed under control 10% EtOH): 94.7%
- LD50 [3, 11]: > 600 mg/kg

Structure (SMILES): CCCn1cnc2c1c(=O)n(CCCCC(C)=O)c(=O)n2C [Compound 22, 1-(5'-oxohexyl)-3-methyl-7-propyl xanthine, reference compound]
- Ulcer index [2, 7]: 18.4 ± 3.0 mm
- inhibition in vivo at 10 mg/kg ([2]; vs. control distilled water): 29.2%
- Ulcer index [1, 10]: 34.7 ± 8.4 mm
- inhibition in vivo at 10 mg/kg ([1]; listed under control 10% EtOH): 62.7%
- antiulcer activity (in words, from literature) [4]: superior to that of pentoxifylline

Structure (SMILES): Cn1c(=O)n(CCCCC(C)(C)O)c(=O)c2c1ncn2CCC(O)CO (stereo not drawn) [Compound 9]
- Ulcer index [2, 7]: 17.8 ± 3.3 mm
- inhibition in vivo at 10 mg/kg ([2]; vs. control distilled water): 31.5%
- LD50 [3, 8]: > 100 mg/kg

Structure (SMILES): C=CCn1cnc2c1c(=O)n(CCCCC(C)(C)O)c(=O)n2C [Compound 20, 7-Allyl-1-(5-hydroxy-5-methylhexyl)-3-methylxanthine]
- Ulcer index [2, 7]: 10.6 ± 3.0 mm
- inhibition in vivo at 10 mg/kg ([2]; vs. control distilled water): 59.2%
- LD50 [3, 8]: > 100 mg/kg

Structure (SMILES): CCCn1cnc2c1c(=O)n(CCCC(C)(O)CC)c(=O)n2C (stereo not drawn) [Compound 12]
- Ulcer index [1, 6]: 26.1 ± 10.8 mm
- inhibition in vivo at 10 mg/kg ([1]; vs. control distilled water): 72%
- LD50 [3, 11]: 300 to 600 mg/kg

Structure (SMILES): CCCn1cnc2c1c(=O)n(CCCCCC(C)(C)O)c(=O)n2C [Compound 11]
- Ulcer index [2, 7]: 16.0 ± 3.8 mm
- inhibition in vivo at 10 mg/kg ([2]; vs. control distilled water): 38.5%
- LD50 [3, 11]: 150 to 300 mg/kg

Structure (SMILES): C=CCn1cnc2c1c(=O)n(CCCCC(C)(C)O)c(=O)n2CC [Compound 19, 7-Allyl-3-ethyl-1-(5-hydroxy-5-methylhexyl)-xanthine]
- Ulcer index [2, 7]: 10.2 ± 2.4 mm
- inhibition in vivo at 10 mg/kg ([2]; vs. control distilled water): 60.8%
- Ulcer index [1, 6]: 5.2 ± 2.0 mm
- inhibition in vivo at 10 mg/kg ([1]; vs. control distilled water): 94.4%
- LD50 [3, 8]: > 100 mg/kg

Structure (SMILES): CCCCn1cnc2c1c(=O)n(CCCCC(C)(C)O)c(=O)n2CC [Compound 17, 7-Butyl-3-ethyl-1-(5-hydroxy-5-methylhexyl)-xanthine]
- Ulcer index [2, 9]: 12.5 ± 3.3 mm
- inhibition in vivo at 10 mg/kg ([2]; vs. control 10% EtOH): 62%
- Ulcer index [1, 10]: 13.0 ± 8.3 mm
- inhibition in vivo at 10 mg/kg ([1]; listed under control 10% EtOH): 83.5%
- LD50 [3, 11]: > 600 mg/kg

Structure (SMILES): CCOCCn1c(=O)c2c(ncn2CCCCC(C)(C)O)n(C)c1=O [Compound 10]
- Ulcer index [2, 7]: 17.8 ± 3.3 mm
- inhibition in vivo at 10 mg/kg ([2]; vs. control distilled water): 31.5%
- LD50 [3, 8]: > 200 mg/kg

Structure (SMILES): CCCn1cnc2c1c(=O)n(CCCC(C)(C)O)c(=O)n2CC [Compound 3]
- Ulcer index [2, 7]: 12.8 ± 2.5 mm
- inhibition in vivo at 10 mg/kg ([2]; vs. control distilled water): 50.8%
- LD50 [3, 8]: > 200 mg/kg

Structure (SMILES): Cn1cnc2c1c(=O)n(CCCCC(C)(C)O)c(=O)n2C [Compound 7]
- Ulcer index [2, 7]: 15.8 ± 4.4 mm
- inhibition in vivo at 10 mg/kg ([2]; vs. control distilled water): 39.2%
- LD50 [3, 8]: > 200 mg/kg

Structure (SMILES): Cn1c(=O)n(CCCCC(C)(C)O)c(=O)c2[nH]cnc21 [Compound 5]
- Ulcer index [2, 7]: 7.5 ± 2.0 mm
- inhibition in vivo at 10 mg/kg ([2]; vs. control distilled water): 71.2%
- LD50 [3, 8]: > 200 mg/kg
- LD50 [5]: > 2500 mg/kg

Structure (SMILES): CCn1c(=O)n(CCCCCC(C)(C)O)c(=O)c2c1ncn2C [Compound 4]
- Ulcer index [2, 7]: 10.6 ± 1.8 mm
- inhibition in vivo at 10 mg/kg ([2]; vs. control distilled water): 59.2%
- Ulcer index [1, 6]: 21.2 ± 8.4 mm
- inhibition in vivo at 10 mg/kg ([1]; vs. control distilled water): 77.2%
- LD50 [3, 8]: 100 to 200 mg/kg

Structure (SMILES): CCn1cnc2c1c(=O)n(CCCCCC(C)(C)O)c(=O)n2CC [Compound 13, 3,7-diethyl-1-(6-hydroxy-6-methylheptyl)-xanthine]
- Ulcer index [2, 7]: 5.0 ± 1.0 mm
- inhibition in vivo at 10 mg/kg ([2]; vs. control distilled water): 80.8%
- Ulcer index [1, 6]: 15.7 ± 9.4 mm
- inhibition in vivo at 10 mg/kg ([1]; vs. control distilled water): 83.1%
- LD50 [3, 8]: > 200 mg/kg

Structure (SMILES): CCn1c(=O)n(CCCCC(C)(C)O)c(=O)c2c1ncn2C [Compound 2]
- Ulcer index [2, 7]: 6.5 ± 1.6 mm
- inhibition in vivo at 10 mg/kg ([2]; vs. control distilled water): 75%
- times more effective than propentofylline in improving stress-induced gastric ulcers ([2]; stress-induced gastric ulcers): 2.5 times
- Ulcer index [1, 6]: 23.5 ± 7.0 mm
- inhibition in vivo at 10 mg/kg ([1]; vs. control distilled water): 74.8%
- LD50 [3, 8]: > 200 mg/kg

Structure (SMILES): C=CCCn1cnc2c1c(=O)n(CCCCC(C)(C)O)c(=O)n2C [Compound 6]
- Ulcer index [2, 9]: 17.4 ± 4.5 mm
- inhibition in vivo at 10 mg/kg ([2]; vs. control 10% EtOH): 47.1%
- LD50 [3, 11]: 150 to 300 mg/kg

Structure (SMILES): CCOCn1cnc2c1c(=O)n(CCCCC(C)(C)O)c(=O)n2CC [Compound 18]
- Ulcer index [2, 7]: 6.9 ± 2.1 mm
- inhibition in vivo at 10 mg/kg ([2]; vs. control distilled water): 73.5%
- Ulcer index [1, 6]: 16.8 ± 7.1 mm
- inhibition in vivo at 10 mg/kg ([1]; vs. control distilled water): 82%
- LD50 [3, 8]: > 200 mg/kg

Structure (SMILES): CC(=O)CCCCn1c(=O)c2c(ncn2C)n(C)c1=O [pentoxifylline]
- antiulcer activity (in words, from literature) [4]: antiulcer effects

Structure (SMILES): CCCn1cnc2c1c(=O)n(CCCCCC(C)(C)O)c(=O)n2CC [Compound 14, 3-Ethyl-1-(6-hydroxy-6-methylheptyl)-7-propylxanthine]
- Ulcer index [2, 9]: 4.8 ± 1.7 mm
- inhibition in vivo at 10 mg/kg ([2]; vs. control 10% EtOH): 85.4%
- Ulcer index [1, 10]: 3.7 ± 1.1 mm
- inhibition in vivo at 10 mg/kg ([1]; listed under control 10% EtOH): 95.3%
- LD50 [3, 8]: > 200 mg/kg
